Where “and” joins values, the source holds several entries; their conditions need not be identical. Identical values can stand only once. Counter-ions that a name gives are not always drawn. Like-named read-outs stand apart in the source and are kept apart here.
Experiments:
rat tail jerk = rat tail jerk assay (increase in reaction time over control); assay type: in vivo
Text: The compounds of this invention are also active in the rat tail jerk assay, another standard pharmacologic test for analgesic activity of the opiate-type. Such activity is manifested as an increase in the reaction time of the animal in removing (jerking) its tail from a nearby heat stimulus (a resistance wire) after drug administration compared to control time (no drug administered). Table 2 which follows gives the increased reaction times over control times produced by the compounds of this invention when administered subcutaneously. In Tables 2 and 3, column 1 gives the name of the compound; column 2, the dose; column 3, time of observation after administration of the drug; column 4, the increase in reaction time above control in seconds; and column 5, the level of significance of the results ("p" value). […] All drugs were administered as aqueous solutions. More than one value for a given dose level indicates multiple determinations. The results are not averaged.

morphine = assay: modified rat tail jerk assay, antagonism of morphine; assay type: in vivo, rats; settings: for minimal effective dose: Rattus norvegicus, morphine 5 mg./kg. subcutaneous
Protocol: The ability of the compounds of this invention to antagonize the action of morphine, an opiate, is shown by the following modification of the aforementioned rat tail jerk assay: The standard assay procedure is used with the exception that a 7 amps. current is used instead of a 6 amps. current in the hot wire to decrease the measurable agonist effects of the antagonist. The drugs under test are then administered to groups of rats at different dose levels at different times prior to test, with a 5 mg./kg. dose of morphine invariably being administered 10 minutes prior to test. Positive evidence of antagonism is a decreased reaction time over that to be expected from the morphine. […] Among the compounds of this invention, those in which R in Structure I is cyclopropylmethyl are the preferred antagonists, showing activity in the above test procedure. […] In a series of determinations, it was ascertained that the minimum subcutaneous dose necessary to reduce the analgesic effects of a 5 mg./kg. subcutaneous dose of morphine was in the range 2.5-5.0 mg./kg. and the minimum oral dose, 5-10 mg./kg.

[1] = test system: morphine induced Straub tail; assay: blocking of morphine induced Straub tail in mice; assay type: in vivo; settings: 50 mg./kg. subcutaneous, morphine 40 mg./kg. subcutaneous
Protocol: In this assay, a 40 mg./kg. dose of morphine was administered to mice 15 minutes prior to assay, and the test drug at various intervals before assay. Trans-dl-1 -cyclopropylmethyl-3a-(m-hydroxyphenyl)-1,2,3,3a,4,5,6,7,7a,8-decahydroisoquinoline maleate gave a 100 percent block of the Straubed tail effected by a subcutaneous injection of 40 mg./kg. of morphine when the test drug was given at a dose of 50 mg./kg. subcutaneously 15 minutes prior to assay, and 80 percent when given 30 minutes prior to assay. The l(-) isomer gave 100 percent blocking on the morphine-induced Straub tail at 50 and 20 mg./kg. doses 15 and 30 minutes before assay.

[2] = test system: writhing in mice induced by the intraperitoneal injection of acetic acid; assay: mouse-writhing test (inhibition of writhing induced by intraperitoneal acetic acid); assay type: in vivo; settings: for % Inhibition: reading at 0.5 hours; for ED50: Mus musculus, read-out: Median inhibiting dose (I.D.50)
Text: In the Table, column 1 gives the name of the compund; column 2, the dosage in mg./kg. of mouse weight; column 3, the route of administration of the drug ("S.C." is subcutaneous and "or" is oral); and column 4, the percent inhibition found at the particular dose level. […] Median inhibiting doses (I.D.50) are also included in the Table.

## Oc1cccc([C@]23CCCC[C@@H]2CN(CC2CC2)CC3)c1 (stereo in doubt) [Trans-dl-1-cyclopropylmethyl-3a-(m-hydroxyphenyl)-1,2,3,3a,4,5,6,7,7a,8-decahydroisoquinoline maleate]
Rat tail jerk; oral, 5 mg./kg., 15 min
  Increase in Reaction Time Over Control: 0 s
Rat tail jerk; oral, 10 mg./kg., 15 min
  Increase in Reaction Time Over Control: .90 s
Rat tail jerk; oral, 15 mg./kg., 15 min
  Increase in Reaction Time Over Control: .95 s
Rat tail jerk; oral, 20 mg./kg., 30 min
  Increase in Reaction Time Over Control: 1.17 s
Rat tail jerk; oral, 20 mg./kg., 45 min
  Increase in Reaction Time Over Control: 1.33 s
Rat tail jerk; oral, 25 mg./kg., 15 min
  Increase in Reaction Time Over Control: 2.10 s
Rat tail jerk; oral, 25 mg./kg., 30 min
  Increase in Reaction Time Over Control: .30 s
Rat tail jerk; oral, 50 mg./kg., 10 min
  Increase in Reaction Time Over Control: 2.83 s and 2.73 s and 2.88 s
Rat tail jerk; oral, 50 mg./kg., 15 min
  Increase in Reaction Time Over Control: 4.25 s and 4.92 s and 5.08 s
Rat tail jerk; oral, 50 mg./kg., 60 min
  Increase in Reaction Time Over Control: 2.42 s
Rat tail jerk; oral, 50 mg./kg., 90 min
  Increase in Reaction Time Over Control: 1.38 s
Rat tail jerk; oral, 50 mg./kg., 120 min
  Increase in Reaction Time Over Control: 1.17 s
Rat tail jerk; oral, 100 mg./kg., 5 min
  Increase in Reaction Time Over Control: .55 s
Rat tail jerk; oral, 100 mg./kg., 10 min
  Increase in Reaction Time Over Control: 2.45 s
Rat tail jerk; oral, 100 mg./kg., 15 min
  Increase in Reaction Time Over Control: 4.85 s and 7.46 s and 4.50 s
Rat tail jerk; oral, 100 mg./kg., 15 min, 20 sec. cut off
  Increase in Reaction Time Over Control: 5.45 s
Rat tail jerk; oral, 100 mg./kg., 30 min
  Increase in Reaction Time Over Control: 3.45 s and 4.05 s and 6.79 s and 4.38 s
Rat tail jerk; oral, 100 mg./kg., 60 min
  Increase in Reaction Time Over Control: 2.05 s
Rat tail jerk; oral, 200 mg./kg., 15 min, 20 sec. cut off
  Increase in Reaction Time Over Control: 7.25 s and 7.13 s
Rat tail jerk; oral, 200 mg./kg., 30 min
  Increase in Reaction Time Over Control: 2.75 s and 1.42 s
Rat tail jerk; oral, 200 mg./kg., 45 min
  Increase in Reaction Time Over Control: 5.79 s
Rat tail jerk; oral, 300 mg./kg., 15 min
  Increase in Reaction Time Over Control: 7.75 s
Rat tail jerk; subcutaneous, 0.5 mg./kg., 15 min
  Increase in Reaction Time Over Control: .75 s
Rat tail jerk; subcutaneous, 1 mg./kg., 15 min
  Increase in Reaction Time Over Control: .50 s
Rat tail jerk; subcutaneous, 2 mg./kg., 15 min
  Increase in Reaction Time Over Control: 2.21 s
Rat tail jerk; subcutaneous, 3 mg./kg., 15 min
  Increase in Reaction Time Over Control: 2.04 s
Rat tail jerk; subcutaneous, 7 mg./kg., 15 min
  Increase in Reaction Time Over Control: 4.25 s
Rat tail jerk; subcutaneous, 20 mg./kg., 15 min
  Increase in Reaction Time Over Control: 5.17 s and 3.70 s
Rat tail jerk; subcutaneous, 25 mg./kg., 15 min
  Increase in Reaction Time Over Control: 4.40 s
Rat tail jerk; subcutaneous, 30 mg./kg., 15 min, 20 sec. cut off
  Increase in Reaction Time Over Control: 4.25 s
Rat tail jerk; subcutaneous, 40 mg./kg., 15 min
  Increase in Reaction Time Over Control: 3.90 s
Rat tail jerk; subcutaneous, 50 mg./kg., 5 min, 15 sec. cut off
  Increase in Reaction Time Over Control: 4.85 s
Rat tail jerk; subcutaneous, 50 mg./kg., 10 min, 15 sec. cut off
  Increase in Reaction Time Over Control: 4.95 s
Rat tail jerk; subcutaneous, 50 mg./kg., 10 min, 20 sec. cut off
  Increase in Reaction Time Over Control: 4.85 s
Rat tail jerk; subcutaneous, 50 mg./kg., 15 min
  Increase in Reaction Time Over Control: 4.0 s and 5.98 s
Rat tail jerk; subcutaneous, 50 mg./kg., 15 min, 15 sec. cut off
  Increase in Reaction Time Over Control: 6.50 s
Rat tail jerk; subcutaneous, 50 mg./kg., 15 min, 20 sec. cut off
  Increase in Reaction Time Over Control: 6.08 s
Rat tail jerk; subcutaneous, 50 mg./kg., 30 min
  Increase in Reaction Time Over Control: 5.75 s
Rat tail jerk; subcutaneous, 50 mg./kg., 30 min, 15 sec. cut off
  Increase in Reaction Time Over Control: 5.10 s
Rat tail jerk; subcutaneous, 50 mg./kg., 45 min
  Increase in Reaction Time Over Control: 3.00 s
Rat tail jerk; subcutaneous, 50 mg./kg., 90 min
  Increase in Reaction Time Over Control: 1.85 s
Rat tail jerk; subcutaneous, 50 mg./kg., 120 min
  Increase in Reaction Time Over Control: 2.45 s
Rat tail jerk; subcutaneous, 50 mg./kg., 180 min
  Increase in Reaction Time Over Control: 1.80 s
Rat tail jerk; subcutaneous, 60 mg./kg., 15 min, 20 sec. cut off
  Increase in Reaction Time Over Control: 4.40 s
Rat tail jerk; subcutaneous, 100 mg./kg., 15 min
  Increase in Reaction Time Over Control: 4.15 s
Rat tail jerk; subcutaneous, 200 mg./kg., 15 min
  Increase in Reaction Time Over Control: 5.65 s
morphine; 50 mg./kg. subcutaneous, 30 and 60 minutes prior, morphine 5 mg./kg.
  blocking of the analgesic effect of morphine: very effectively blocked the analgesic effect of 5 mg./kg. of morphine
morphine; sc, subcutaneous, read-out: minimum subcutaneous dose necessary to reduce the analgesic effects of morphine
  minimal effective dose: 2.5 to 5 mg/kg
morphine; oral, read-out: minimum oral dose necessary to reduce the analgesic effects of morphine
  minimal effective dose: 5 to 10 mg/kg
morphine; dose not stated
  antagonism of morphine: antagonizes the effects of morphine
[1]; 15 minutes prior
  block of the Straubed tail: 100%
[1]; 30 minutes prior
  block of the Straubed tail: 80%
[2]; 2 mg./kg. S.C.
  % Inhibition: 6%
[2]; 5 mg./kg. S.C.
  % Inhibition: 66%
[2]; 10 mg./kg. S.C.
  % Inhibition: 72%
[2]; 20 mg./kg. S.C.
  % Inhibition: 99%
[2]; 20 mg./kg. oral
  % Inhibition: 46%
[2]; 50 mg./kg. oral
  % Inhibition: 56%
[2]; 100 mg./kg. S.C.
  % Inhibition: 100%
[2]; 100 mg./kg. oral
  % Inhibition: 92%
[2]; sc, S.C.
  ED50: 2 to 5 mg/kg
[2]; oral
  ED50: 20 to 50 mg/kg
